From US20050089488A1, “Deodorant composition with monocyclic, unsaturated sequiterpene alcohols and glyceryl monoalkyl ethers as synergistic active deodorant agents” (priority 2003, published 2005)

What was measured:
[1] = cited from earlier work
[2] = 0.3% by weight in ethanol base deodorant, versus triclosan; cited from earlier work
[3] = system: odor-causing gram positive bacteria; conditions: cited from earlier work
[4] = system: Staphylococcus aureus (ATCC 6538); experiment: Surviving microorganisms after direct inoculation of gel formula; format: cell-based
Experimental: The antimicrobially synergistically effect of alpha bisabolol (Natural) for glyceryl monoalkyl ether was studied and the results are summarized in Tables 15 and 16, below. […] Subsequently the steareth-100, sodium stearate, and […] alcohol were added and the mixture cooled. […] The final compositions were then poured into containers and cooled to room temperature. […] Therefore following formula is gel type. Inoculate test microorganisms to provide a suspension containing from 105 to 106 microorganisms/ml and after 1 hr, 5 hr and 24 hr, check the surviving microorganisms by incubating in the soybean-casein digest agar for 24 hours at 32.5° C. the results are summarized below.

Row | SMILES | stability ([1]; against hydrolysis and elevated temperatures) | solubility in fats and organic solvents ([1]; fats, alcohols, glycols and glycol ethers) | solubility in water ([1]; water) | deodorant effectiveness [2] | anti-microbial activity against odor-causing gram positive bacteria [3] | anti-microbial activity alone ([4]; 0.2% by weight, with no ethylhexylglycerin) | effect on the anti-microbial activity of ethylhexylglycerin ([4]; combination with ethylhexylglycerin)
1 | CCCCC(CC)COCC(O)CO (stereo not shown) [Ethylhexylglycerin] | rather stable | completely soluble | 0.2% | just as effective as 0.1% by weight triclosan | very low | – | –
2 | CC(C)=CCC[C@](C)(O)[C@@H]1CC=C(C)CC1 [alpha bisabolol (Natural), alpha-bisabolol] | – | – | – | – | – | no anti-microbial activity | surprising and unexpected synergistic effect
